This note sets out measurements from patent US20130079287A1, “CAFFEOYLALPHANEOENDORPHIN PEPTIDE DERIVATIVE AND USE THEREOF AS ANTI-ITCHING AND ANTI-ATOPIC AGENTS” (priority 2011, published 2013).

Data set [1] deals with peptidase derived from the cell disruption solution of keratinocyte. The data set can be described thus: Stability to peptidase, cell disruption solution of keratinocyte. The note with it: 10,000 ppm, 37° C., 6 hours. On the procedure: (§1) After culturing at 37° C. for 6 hours, the residual contents were analyzed, and the existing contents were compared and evaluated on a percentage (%) to the initial existing contents.

For data set [2], the system named is peptidase derived from the cell disruption solution of fibroblast. Kind of data set: Stability to peptidase, cell disruption solution of fibroblast. Particulars: 10,000 ppm, 37° C., 6 hours. On the procedure: as §1
Another data set concerns NZW Rabbit skins. Kind of data set: Skin irritation safety test (topical toxicity). In kind it is in vivo, New Zealand White-Rabbit. Also noted: key to Erythema & Eschar score: 0: Absolutely no erythema; 1: Very light erythema (barely identifiable level with the naked eye); 2: Obvious erythema; 3: A little serious erythema; 4: Serious erythema (carrot color) and crust formation; key to clinical signs: —: Normal. The note with it: for clinical signs: female rabbit; for Edema score, Average / Edema score, Sum / Erythema & Eschar score, Average / Erythema & Eschar score, Sum: 6 animals. On the procedure:
In order to confirm the safety of caffeoyl peptide derivative according to the present invention to a human body skin when applying besides a skin that is an expected first human body application method, a topical toxicity skin irritation safety that is pre-clinical test method of pharmaceuticals was verified. The safety verification was performed by asking to Korea Research Institute of Chemical Technology that is an approved GLP Certificate Authority; the maximum application concentration range to skin irritation during topical toxicity was set at 10 mg/ml concentration, and then it was tested that irritant to a skin at the above concentration was not existed. For the above test, at least 6 of young and healthy white rabbits (New Zealand White-Rabbit, 2.0˜3.0 kg) were used. After selecting only healthy rabbits through observing a general symptom every day for 5 days during an accommodating period from an obtaining day, hairs of the abdominal regions of the selected rabbits was shaved away and then 6 rabbits with normal skins were used for test. […] An keeping environment was simply as follows: the test was performed in a rabbit keeping room in the institute by setting the temperature of 22° C., the relative humidity of 50%, a number of ventilation of 10˜15 number/hr, lighting of 12 h lights-on/12 h lights-off (08:00˜20:00), an intensity of illumination of 150˜300 Lux. For monitoring of keeping environment, whole humidity in an animal room was measured by an auto-measurer and environment conditions, such as, an intensity of illumination were regularly measured during a test period. As a result of environment measurement in an animal room, there was no change to affect to the test. The animals were kept individually in a stainless keeping box (380×480×300 mm, JungDo Industry) during accommodation, inspection, and observation periods. Feeds that was feeds for Rabbits, experiment animals, supplied from Cargillagripurina Cor. (Chonbuk, Gunsan-si Soyong dong 56-4) was freely taken by the animals, and water that was a filtered water through UV irradiation was freely taken by using a water bottle. In order to confirm the contaminant in the feeds and water, the contaminant of feeds was confirmed by receiving the feed report card according to regular test of manufacturer from a feeds supplier, and the contaminant of water was confirmed through the regular test according to applicable standard working water procedure (SOPs) of the institute.
The caffeoylalphaneoendorphin peptide derivative that was a test material prepared from Example 1 was dissolved in a concentration of 10 mg/ml (10,000 ppm), and then 0.5 ml per each animal was used by using the following method. […] The abraded skins were made to have a scratch without blood by using a needle end of syringe so that the horny layer of the skin was damaged, but the corium of the skin was not damaged. After the test materials were applied to one site of abraded skins and one site of intact skins, the sites were occlusive-patched with non-irritative tape and Coban for 24 hours. Control regions were applied with sterilized gauze wetted with sterilized distilled water by using the same method as the above (see FIG. 4).
In order to observe as to whether skin irritation was occurred, a change of general symptoms and as to whether animals were killed were observed during 72 hours after completing the application of test materials as the observation of general symptoms. In addition, the body weights per individual were measured immediately before applying the test materials and at 72 hours after applying the test materials. […] The evaluation of skin response and decision of irritant were performed based on the evaluation table of skin response as disclosed in the following Table 1. The decision of irritant content to the result was performed according to a calculation method of P.I.I. (Primary Irritation Index) by Draize, which is well used, generally (see Table 2).

The nature of data set [3]: Physical stability test under alternating temperature. It is filed as physicochemical. Particulars: alternating temperature 4/20/40° C. at 8 h interval, up to 60 days, naked eye. An excerpt:
The physical stability under the condition of severe alternating temperature is an essential factor in the terms of the product property to be exposed to various external atmospheres in the case of cosmetics. The caffeoylalphaneoendorphin peptide derivative prepared from Example 1 has an increased stability to oxidation rather than that of caffeic acid in an aqueous solution. In order to confirm the increased physical stability, it was stored under the condition of alternating temperature for certain period time, and then its degradation degree was measured.
Firstly, 10,000 ppm concentration of caffeoylalphaneoendorphin peptide derivative aqueous solution was placed under the conditions of alternating temperatures, that is, low temperature (4° C.), room temperature (20° C.), and high temperature (40° C.) that were repeated at an interval of 8 hours, and then the physical stability was measured by the naked eye and HPLC Analysis for 30 days, 60 days, and 90 days.

Where [4] appears, read: test sites, abraded skin, 24 hour.
Setting [5] is: test sites, abraded skin, 72 hour.
Setting [6] is: test sites, intact skin, 24 hour.
The mark [7] stands for this setting: test sites, intact skin, 72 hour.

Values joined by “and” are separate entries in the source; they are usually repeats but may differ in a detail not shown here. Equal values may be shown once. Marks after values point to notes of the source that are not given here. Where a SMILES comes first, the peptide text is derived from it. Where no end group is shown, it is not given here. The star is where a group is joined. Caffeoyl = O=C(/C=C/c1ccc(O)c(O)c1)*

In the case of `CC(C)C[C@H](NC(=O)[C@H](Cc1ccccc1)NC(=O)CNC(=O)CNC(=O)[C@H](Cc1ccc(O)cc1)NC(=O)/C=C/c1ccc(O)c(O)c1)C(=O)N[C@@H](CCCNC(=N)N)C(=O)N[C@@H](CCCCN)C(=O)N[C@@H](Cc1ccc(O)cc1)C(=O)N1CCC[C@H]1C(=O)N[C@@H](CCCCN)C(=O)O` [Caffeoyl (R1, R2, and R5 are hydrogen, and R3 and R4 are hydroxy)-alphaneoendorphin Peptide Derivative] (Caffeoyl-YGGFLRKYPK-OH), the degradation by peptidase entry in data set [1] and in data set [2] was “almost not degraded” each time. Also, the “increase of existing contents versus alphaneoendorphin” value in data set [1] (HPLC) is 6.1±1.3 times; in data set [2] (HPLC), 5.9±2.1 times. In addition, the Body weights was 2237.2 g and 2511.9 g and 2684.9 g and 2408.4 g and 2478.1 g and 2347.3 g in the data set with NZW Rabbit skins (0 hours (immediately before applying), per animal); 2313.4 g and 2631.4 g and 2788.0 g and 2496.7 g and 2611.7 g and 2454.4 g in the data set on NZW Rabbit skins (72 hours after application, per animal). In addition, the “changes of body weights of all animals” value in the data set with NZW Rabbit skins (0 to 72 hours) is listed as “normally increased”. In the data set on NZW Rabbit skins (0 to 72 hours, per animal), the Body weight gains is 76.2 g and 119.5 g and 103.1 g and 88.3 g and 133.6 g and 107.1 g. The “toxicity in skin irritation test of topical toxicity” value with NZW Rabbit skins (10 mg/ml) is given as “no toxicity”. In the data set on NZW Rabbit skins (10 mg/ml applied over NZW Rabbit skins), the “Irritant Evaluation by P.I.I.” value was “none irritant”. In addition, the clinical signs result is “—” with NZW Rabbit skins (10 mg/ml, 0.5 ml per animal, 0 hours after application, per animal); “—” with NZW Rabbit skins (10 mg/ml, 0.5 ml per animal, 24 hours after application, per animal); “—” with NZW Rabbit skins (10 mg/ml, 0.5 ml per animal, 48 hours after application, per animal); “—” in the data set on NZW Rabbit skins (10 mg/ml, 0.5 ml per animal, 72 hours after application, per animal). Besides, the “Mortality (Number of dead animals/Number of total animals)” value with NZW Rabbit skins (10 mg/ml, 0.5 ml per animal, female rabbits, 72 hours) is given as 0/6^a. In addition, the “death or unusual symptoms related to the application” value in the data set on NZW Rabbit skins (during the test period) is reported as “no death or unusual symptoms”. Moreover, the “P.I.I (Primary Irritation Index)” value with NZW Rabbit skins (test sites, 10 mg/ml, (Sum or mean at 24 and 72 hrs)/4) was determined as 0.0. Moreover, the “Edema score, Average” value in the data set with NZW Rabbit skins (setting [4]), in the data set on NZW Rabbit skins (setting [5]), in the data set on NZW Rabbit skins (setting [6]) and in the data set with NZW Rabbit skins (setting [7]) was 0 throughout. The “Edema score, Sum” value in the data set with NZW Rabbit skins (setting [4]), in the data set on NZW Rabbit skins (setting [5]), with NZW Rabbit skins (setting [6]) and in the data set on NZW Rabbit skins (setting [7]) was 0 in each case. In addition, the “Erythema & Eschar score, Average” value with NZW Rabbit skins (setting [4]), in the data set with NZW Rabbit skins (setting [5]), in the data set on NZW Rabbit skins (setting [6]) and with NZW Rabbit skins (setting [7]) was 0 each time. The “Erythema & Eschar score, Sum” value in the data set on NZW Rabbit skins (setting [4]), with NZW Rabbit skins (setting [5]), with NZW Rabbit skins (setting [6]) and in the data set with NZW Rabbit skins (setting [7]) was 0 throughout. Besides, the “Erythema & Eschar score” value was 0 in the data set with NZW Rabbit skins (test sites, abraded skin, 24 hour, per animal); 0 in the data set with NZW Rabbit skins (test sites, abraded skin, 72 hour, per animal); 0 with NZW Rabbit skins (test sites, intact skin, 24 hour, per animal); 0 with NZW Rabbit skins (test sites, intact skin, 72 hour, per animal). For the same compound, the “Sum of Averages” value in the data set with NZW Rabbit skins (test sites, erythema & eschar and edema, 24 and 72 hour) turned out to be 0.0.

Consider `O=C(O)/C=C/c1ccc(O)c(O)c1` [caffeic acid], for which the “acidification of aqueous solution (change of transparency)” value in data set [3] is recorded as “serious acidification”.

As to YGGFLRKYPK [alphaneoendorphin], the degradation by peptidase result in data set [1] and in data set [2] was “considerably degraded” throughout.
